Here are results for 141 compounds from a melting point compilation (Tetko et al.).

For the data set the following is noted: a range is the spread between reports.

In the case of `Oc1cc(Cl)ccc1Oc1ccc(Cl)cc1Cl`, the melting point was 55.6 to 57 °C.
The compound `CC(=O)CCCC(=O)O` showed a melting point of 12 to 13.5 °C.
`COc1ccccc1Br` returned a melting point of 2 to 3 °C.
On to `Oc1cccc(O)c1O`, for which the melting point lay in the range of 132 to 134 °C.
Take `NCCCNCCCCNCCCN`: the melting point was 28 to 29 °C.
In turn, `COc1ccc(OC)c([N+](=O)[O-])c1` showed a melting point of 71 to 72.5 °C.
Compound `CN(C)C(=O)C(c1ccccc1)c1ccccc1` showed a melting point of 134 to 135 °C.
Next, `CCOC(=O)C(=O)OCC`: -41 to -40 °C; `COc1ccccc1[N+](=O)[O-]`: 9.4 to 10.5 °C; `C1CCC1`: -91 to -90.6 °C.
In turn, `C=C(C)C(C)(C)C` registered a melting point of -110 °C.
The compound `CCCCCCCCCCCCCCCCCC(=O)OCC` came in with a melting point of 33 to 35 °C.
On to `N#Cc1cccc2ccccc12`, for which the melting point was in the range of 36 to 37.5 °C.
`CCCC=O` yielded a melting point of -99 to -96 °C.
Regarding `Cc1ccccc1O`, the melting point was 29.8 to 33 °C.
The figure for `NC(=O)Oc1ccccc1` is 150 to 151 °C; for `C=CCCCCC(=O)O` it is -6.5 to -6 °C.
The figure for `O=c1cc(CO)occ1O` is 154 °C; for `CC(C)=C(C)C` it is -75 to -74 °C.
Compound `O=[N+]([O-])c1cc(Cl)cc(Cl)c1` displayed a melting point of 64 to 65.4 °C.
Regarding `CCCCCCCCC(=O)O`, the melting point lay in the range of 10 to 12.3 °C.
As to `ClC(Cl)(Cl)Cl`, the melting point was -23 to -22.9 °C.
`OCc1cccc2ccccc12`: the melting point was 61 to 64 °C.
`CC12CCC(=O)C=C1CCC1C2CCC2(C)C1CCC2(C)O` (stereo unspecified) registered a melting point of 163 to 164 °C.
The compound `CC/C=C/CC(=O)O` came in with a melting point of 11 to 12 °C.
With `CCC1(C)CC1`, the melting point was -130 °C.
The figure for `CC(=O)c1ccc(Cl)cc1Cl` is 33 to 34 °C; for `CCCCCCCCCCCCCCO` it is 39 to 40 °C.
Next, `Oc1ccccc1Br`: 5 to 5.6 °C; `CCOC(=O)c1cc(C)n[nH]1`: 82 to 87 °C.
The figure for `CC(C)=CC=C(C)C` is 12 to 13 °C; for `Cc1cc(N)ccc1Cl` it is 83.5 to 84 °C.
On to `C[Si]1(C)O[Si](C)(C)O[Si](C)(C)O[Si](C)(C)O1`, for which the melting point fell in the range of 17.5 to 18 °C.
Next, `Nc1ccc([N+](=O)[O-])cc1[N+](=O)[O-]`: 176 to 180 °C; `Clc1cc(Cl)c(Cl)c(Cl)c1`: 51.5 to 55 °C.
For `CC12CCC3c4ccc(O)cc4CCC3C1CC(O)C2O` (stereo unspecified), the melting point was 281 to 282 °C.
Regarding `CCCCCCCCCCCCCCCCCCCCCCCCCCCCCCCCCCCC`, the melting point lay in the range of 76 to 76.5 °C.
`CCC1CCCCC1`: the melting point is -111 °C.
With `CC(C(=O)O)c1ccc(N2Cc3ccccc3C2=O)cc1` (stereo unspecified), the melting point is 212 to 214 °C.
The compound `C=C(CC)C(=O)c1ccc(OCC(=O)O)c(Cl)c1Cl` came in with a melting point of 121 to 122 °C.
In the case of `SCc1ccccc1`, the melting point was -30 to -29 °C.
In the case of `Cc1ccc2oc(=O)ccc2c1`, the melting point lay within 76 to 76.5 °C.
`Clc1ccc(Cl)c(I)c1` had a melting point of 21 to 22 °C.
For `BrCc1ccccc1CBr`, the melting point fell in the range of 94 to 95 °C.
Next, `CC12CCC(=O)C=C1CCC1C2C(=O)CC2(C)C1CCC2(O)C(=O)CO` (stereo unspecified): 222 to 226 °C; `Cc1cccc(C)c1C`: -25.4 to -25 °C; `CCCCCCC(C)CC` (stereo unspecified): -85 to -84.8 °C.
For the compound `O=C(O)c1ccccc1N=Nc1ccc(O)cc1`, the melting point lay in the range of 205 to 206 °C.
The figure for `c1ccc(Oc2ccccc2)cc1` is 26.8 to 28 °C; for `NNC(=O)c1ccccc1[N+](=O)[O-]` it is 121 to 124 °C.
The compound `ClC1c2ccccc2CCc2ccccc21` yielded a melting point of 106 to 107 °C.
Regarding `CCOc1ccc(C=O)cc1`, the melting point is 13.5 to 14 °C.
On to `SC(c1ccccc1)(c1ccccc1)c1ccccc1`, for which the melting point was in the range of 105 to 106 °C.
`Cc1cccc(C(C)(C)C)c1` returned a melting point of -41.4 to -41 °C.
The figure for `CC(NC(=O)OC(C)(C)C)C(=O)O` (stereo unspecified) is 79.5 to 82 °C.
Next, `Cc1ccc(C)s1`: -63 to -62.6 °C; `CC(C)(C)OC(=O)NCC(=O)O`: 87.5 to 89 °C.
As to `O=C(O)c1ccc(Cl)c([N+](=O)[O-])c1`, the melting point was 182 to 183 °C.
Next, `N#Cc1ccc(O)cc1`: 112 °C.
Compound `CCCCCCCCOc1ccc(C(=O)O)cc1` registered a melting point of 101 to 103 °C.
The figure for `O=c1c(-c2ccccc2)c1-c1ccccc1` is 119 to 120 °C; for `CC(=O)Nc1ccc([N+](=O)[O-])cc1` it is 215 to 216 °C.
On to `CC1=CC(=O)CC(C)(C)C1`, for which the melting point is -8.1 to -8 °C.
For `C1CCNCC1`, the melting point is -11 to -7 °C.
Next, `CCCCCCCCCCCCCCCCCCS`: 30 to 32 °C; `N#Cc1cccc(C=O)c1`: 76.5 to 77 °C; `CCCCCCCCCCCCCCCC(C)C`: 5.7 to 6 °C.
The compound `ClC(Cl)(Cl)Br` showed a melting point of -6 to -5.7 °C.
Compound `NC(=O)c1c(F)cccc1F` had a melting point of 146 to 147 °C.
Consider `O=C(Nc1ccccc1)c1ccccc1`, for which the melting point lay within 163 to 164 °C.
Consider `Cc1cc(O)ccc1O`, for which the melting point was in the range of 128 to 129 °C.
As for `CCNc1ccccc1`, the melting point is -64 to -63 °C.
`NCCCCCCO`: the melting point fell in the range of 56 to 57 °C.
Compound `BrCCCBr` gave a melting point of -34.2 to -34 °C.
On to `CCC`, for which the melting point was -188 °C.
`CCCCCCCCCC` displayed a melting point of -30 to -29.7 °C.
Compound `Cc1ccnc2ccccc12` yielded a melting point of 9.5 to 10 °C.
The figure for `CCCC=C(C)C` is -130 °C; for `CCc1ccc(C)nc1` it is -71 to -70.9 °C.
Compound `CCCCCCCCCCCCCCBr` came in with a melting point of 5 to 5.6 °C.
On to `ClCCl`, for which the melting point is -97 to -95 °C.
Next, `CCOCOCC`: -66.5 to -66 °C.
Next, `NCCNCCN`: -40 to -35 °C.
`CC(=O)c1ccc(C#N)cc1` had a melting point of 57 to 59 °C.
`Oc1ccc(NCc2ccccc2)cc1` registered a melting point of 84 to 88 °C.
Regarding `O=C(O)c1cccc([N+](=O)[O-])c1C(=O)O`, the melting point lay within 210 to 212 °C.
For the compound `O=C(Oc1ccc([N+](=O)[O-])cc1)c1ccccc1`, the melting point lay in the range of 139 to 143 °C.
In the case of `CCCS`, the melting point is -113 °C.
Consider `O=C(O)c1ccc([N+](=O)[O-])cc1[N+](=O)[O-]`, for which the melting point lay within 181 to 182 °C.
The figure for `COc1cc(OC)c(C=O)c(OC)c1` is 120 to 121 °C; for `O=C1OC2(OC=C(c3ccccc3)C2=O)c2ccccc21` (stereo unspecified) it is 154 to 157 °C; for `CC(=O)c1ccc(C)s1` it is 26 to 27.5 °C.
`CC(=O)NS(=O)(=O)c1ccc(N)cc1`: the melting point lay within 182 to 183 °C.
The compound `CC(C)(C)Br` gave a melting point of -20 to -16 °C.
Regarding `c1ccc(C2CO2)cc1` (stereo unspecified), the melting point is -37 to -35.6 °C.
As to `CCOC(=O)c1cc2ccccc2[nH]1`, the melting point is 124 °C.
As for `O=C1CCC(c2ccccc2)CC1`, the melting point lay in the range of 79.5 to 80 °C.
In turn, `O=[N+]([O-])c1cccc(C(F)(F)F)c1` registered a melting point of -5 to -2.4 °C.
`O=Cc1ccc(C=O)cc1` came in with a melting point of 115 to 117 °C.
With `O=C(O)CCCl`, the melting point fell in the range of 39 to 41 °C.
On to `CCCCCCC(O)CCCC` (stereo unspecified), for which the melting point was -4 to -3.5 °C.
In the case of `CCCCC(N)=O`, the melting point was 103 to 106 °C.
For the compound `Cc1ccc2sc(C)nc2c1`, the melting point lay in the range of 38 to 40 °C.
As to `O=C(O)c1ccccc1-c1ccccc1`, the melting point fell in the range of 112 to 115 °C.
Consider `CN=C=S`, for which the melting point lay in the range of 32 to 36 °C.
The compound `Cc1cc(C)cc(O)c1` returned a melting point of 62.5 to 65.5 °C.
Take `C#CCC(C)C`: the melting point is -105 °C.
Take `O=[N+]([O-])c1cccc(O)c1`: the melting point is 94 to 98 °C.
Turning to `C#CC(C)(C)O`, the melting point lay within 2.6 to 3 °C.
In turn, `O=C(O)Cc1ccc(C(F)(F)F)cc1` registered a melting point of 80 to 84 °C.
Compound `CCCC(C)(C)C` displayed a melting point of -124 °C.
Take `O=[N+]([O-])c1ccc(Cl)c(Cl)c1Cl`: the melting point lay in the range of 55 to 56 °C.
In turn, `CCOC(=O)n1ccn(C)c1=S` gave a melting point of 124 °C.
`CC(C)(c1ccccc1)c1ccc(O)cc1` came in with a melting point of 70 to 75 °C.
Turning to `N#CCc1ccc(N)cc1`, the melting point lay within 44 to 46 °C.
Turning to `Clc1ccc(-c2ccccc2)cc1`, the melting point fell in the range of 78 to 78.8 °C.
`CC(Br)C(C)(Br)Br` (stereo unspecified) showed a melting point of 1.8 to 2 °C.
Compound `CCCCCCCCCCCCCCCCC(=O)O` showed a melting point of 60 to 61.3 °C.
`O=C(c1ccccc1)C(Cl)c1ccccc1` (stereo unspecified) had a melting point of 67 to 68.5 °C.
Take `CCCCCCCC(C)C`: the melting point is -75 to -74.6 °C.
`O=C(O)c1ccc(C(F)(F)F)cc1` returned a melting point of 220 to 221 °C.
`CCCCCC#N` displayed a melting point of -80.3 to -80 °C.
The compound `CCCCCC1CCCCC1` displayed a melting point of -58 to -57.5 °C.
`CCc1nc(N)nc(N)c1-c1ccc(Cl)cc1` had a melting point of 233 to 234 °C.
The figure for `O=C(O)c1cccc(C(=O)O)c1` is 342 to 347 °C; for `N#C/C=C/c1ccccc1` it is 19 to 22 °C; for `Oc1cccc(Cl)c1` it is 32 to 34 °C.
`C1CCSC1` displayed a melting point of -96.1 to -96 °C.
Next, `CC(C)(C)C(O)C(Oc1ccc(Cl)cc1)n1cncn1` (stereo unspecified): 134 to 138 °C; `CC1CCC(C)(C)C1` (stereo unspecified): -142 °C.
Next, `N#CC(c1ccccc1)c1ccccc1`: 74 to 74.3 °C; `ON=C1CCCCC1`: 89 to 90 °C.
In the case of `O=C(O)CCCCCC(=O)O`, the melting point fell in the range of 104 to 106 °C.
`CC(C)[C@@H]1CC[C@@H](C)C[C@H]1O`: the melting point is 42 to 44 °C.
`FC(C(F)(F)F)C(F)(F)F` displayed a melting point of -131 to -127 °C.
Turning to `CC1(C)OC(=O)CC(=O)O1`, the melting point was in the range of 94 to 98 °C.
Compound `CC(CC(=O)O)CC(=O)O` showed a melting point of 86 to 87 °C.
Compound `S=C1NCCS1` yielded a melting point of 105 to 106 °C.
Next, `BrCC(Br)CBr`: 16 to 17 °C; `NNC(=O)c1ccccc1O`: 148 °C; `CC(C)(C)c1cccc(O)c1`: 41 to 45 °C.

For orientation: melting point means the temperature of the solid-liquid transition.
